Results taken from US9359371B2, “Bicyclic substituted pyrimidine compounds” (Xuanzhu Pharma Co., Ltd., priority 2012, dated 2016).

How the values were obtained:
PDE-11 = PDE-11 (Homo sapiens (Human), UniProt Q9HCR9); assay: Caliper Mobility-Shift PDE-11 Assay; format: biochemical; conditions: Table 4; maximum final concentration 10 μM
Experimental: Experiment 4: Measurement of Pharmacological Activity on PDE-11 Enzyme In Vitro
Method: enzyme assay, Caliper Mobility-Shift PDE-11 Assay
The test compound was accurately weighed, dissolved in DMSO, mixed thoroughly and formulated into 10 mM. The above stock solution was diluted to a concentration of 0.5 mM with DMSO, and then was gradiently diluted by a dilution factor of 3.162, resulting in 11 concentrations in total.
To a 96-well plate, 20 μL of 10 μM FL-cGMP as the substrate was added; then 1 μL solution of the compound in DMSO or DMSO solution without compound was added; and then 29 μL of 0.28 ng/μL PDE-11 enzyme buffer (100 mM Hepes pH 7.5, 5 mM MgCl2, 0.002% Brij-35) was added. The maximum final concentration of the compound was 10 μM. The plate was incubated at 30° C. for 1 h, and 20 μL of 70 μM EDTA was then added to stop the reaction. 26 μL of solution of each well was transferred to a 384-well plate. The conversion was read on a EZ reader II. The Inhibition rate was calculated by the formula below, and used to calculate IC50 by Prism 5.0 Inhibition rate=[Conversion (ZPE)−Conversion (sample)]×100/[Conversion (ZPE)−Conversion (HPE)]
Note: HPE: control without enzyme; ZPE: control without compound

PDE-5A enzyme = PDE-5A enzyme (Homo sapiens (Human), UniProt O76074); assay: Caliper Mobility-Shift PDE-5A Assay; format: biochemical; conditions: Table 1; Avanafil value is the control
hERG channel = hERG channel (Homo sapiens (Human), UniProt Q12809); assay: hERG potassium channel whole-cell patch clamp on CHO-K1 cell line
Description: Experiment 8: Detection of Inhibitory Effect of the Compounds of the Present Invention on hERG Potassium Channel by the Patch Clamp Method
Rapidly activated human delayed rectifying outward potassium current (IKr) is mainly mediated by hERG ion channel and is involved in repolarization of human cardiac muscle cell. Clinically, blocking of the current by a drug is the main cause of QT interval prolongation syndrome, acute arrhythmia and even sudden death. The main purpose of the experiment is to test the blocking effect of the compounds of the present invention on hERG channel, and to determine the half maximal inhibitory concentration (IC50) of the compounds.
The experiment mainly included: (1) recording hERG current by patch clamp technique on CHO-K1 cell line which stably expressed hERG channel; (2) calculating the Inhibition rate of each concentration according to hERG tail current; (3) testing each compound at 5 concentrations to calculate IC50; (4) testing 2 cells at each concentration; (5) a positive control.
The structures and synthesis of Compound 88 (WO-88) and Compound 93 (WO-93) as disclosed in WO200119802A were described in Example 55 and Example 56.
Drug for positive control: Amitriptyline hydrochloride (Sigma-Aldrich, an international standard blocker for hERG channel)
Pippette Solution (in mM): KCl 120, KOH 31.25, CaCl2 5.374, MgCl2 1.75, Ethylene glycol-bis(β-aminoethyl ether)-N,N,N′,N′-tetraacetic acid (EGTA) 10, HEPES 10, Na2-ATP 4, adjusted to a pH of 7.2 with 1N potassium hydroxide; adjusted to an osmotic pressure of 280-290 mOsm; preserved at −20° C. after filtration.
Preparation of compounds: Some of the compounds of the present invention and Amitriptyline hydrochloride as the positive control drug were separately dissolved in 100% DMSO (Merck, 61850125001730), then prepared into stock solutions of 30 mM. Before the experiment, the above stock solutions were diluted with DMSO to a concentration of 1000-fold of the experimental concentration. Then the diluted solutions were further diluted with extracellular solution by 1:1000 to the required experimental concentration. The final concentration of DMSO in the extracellular solution was kept as 0.1%.
Stable cell line CHO-hERG was purchased from AVIVA Company. The hERG current on the cell line was recorded. For the purpose of quality control, the smallest seal resistance was no less than 500 MΩ, and the hERG current was no less than 0.4 nA.
The hERG current was recorded by a whole-cell patch clamp technique. Cell suspension was added into a 35-mm culture dish. The culture dish was placed on the objective table of an inverted microscope. Upon cell attachment, perfusion was conducted with the extracellular solution at a flow rate of 1-2 mL/min.
Glass microelectrode with the pipette tip resistance of 2-5 MΩ was controlled by a microelectrode puller via a two-step process. After the whole-cell record was set up, the clamp potential was kept at −80 mV. The cell was depolarized to +60 mV by applying a voltage stimulus, and then repolarized to −50 mV to obtain the hERG tail current. Recordation was conducted after the current was stable. The extracellular perfusion was started from the lowest concentration, with 5-10 min for each concentration until the current was stable, and then conducted with the next concentration.
Stimulus payment and signal collection were performed by A/D-D/A conversion using Digidata 1440 (Molecular Devices) and pCLAMP software (Version 10.2, Molecular Devices). Signal amplification was performed on a patch clamp amplifier (Multiclamp 700B, Molecular Devices), with a filter of 1 KHz. Further data analysis and curve fitting were conducted by Clampfit (version 10.2, Molecular Devices) and Prism. The data were presented as mean value±standard deviation.
In the process of data analysis, the peak value and the baseline of the tail current were corrected when determining the blocking effect on hERG.

hERG channel, sequence (Q12809 whole entry): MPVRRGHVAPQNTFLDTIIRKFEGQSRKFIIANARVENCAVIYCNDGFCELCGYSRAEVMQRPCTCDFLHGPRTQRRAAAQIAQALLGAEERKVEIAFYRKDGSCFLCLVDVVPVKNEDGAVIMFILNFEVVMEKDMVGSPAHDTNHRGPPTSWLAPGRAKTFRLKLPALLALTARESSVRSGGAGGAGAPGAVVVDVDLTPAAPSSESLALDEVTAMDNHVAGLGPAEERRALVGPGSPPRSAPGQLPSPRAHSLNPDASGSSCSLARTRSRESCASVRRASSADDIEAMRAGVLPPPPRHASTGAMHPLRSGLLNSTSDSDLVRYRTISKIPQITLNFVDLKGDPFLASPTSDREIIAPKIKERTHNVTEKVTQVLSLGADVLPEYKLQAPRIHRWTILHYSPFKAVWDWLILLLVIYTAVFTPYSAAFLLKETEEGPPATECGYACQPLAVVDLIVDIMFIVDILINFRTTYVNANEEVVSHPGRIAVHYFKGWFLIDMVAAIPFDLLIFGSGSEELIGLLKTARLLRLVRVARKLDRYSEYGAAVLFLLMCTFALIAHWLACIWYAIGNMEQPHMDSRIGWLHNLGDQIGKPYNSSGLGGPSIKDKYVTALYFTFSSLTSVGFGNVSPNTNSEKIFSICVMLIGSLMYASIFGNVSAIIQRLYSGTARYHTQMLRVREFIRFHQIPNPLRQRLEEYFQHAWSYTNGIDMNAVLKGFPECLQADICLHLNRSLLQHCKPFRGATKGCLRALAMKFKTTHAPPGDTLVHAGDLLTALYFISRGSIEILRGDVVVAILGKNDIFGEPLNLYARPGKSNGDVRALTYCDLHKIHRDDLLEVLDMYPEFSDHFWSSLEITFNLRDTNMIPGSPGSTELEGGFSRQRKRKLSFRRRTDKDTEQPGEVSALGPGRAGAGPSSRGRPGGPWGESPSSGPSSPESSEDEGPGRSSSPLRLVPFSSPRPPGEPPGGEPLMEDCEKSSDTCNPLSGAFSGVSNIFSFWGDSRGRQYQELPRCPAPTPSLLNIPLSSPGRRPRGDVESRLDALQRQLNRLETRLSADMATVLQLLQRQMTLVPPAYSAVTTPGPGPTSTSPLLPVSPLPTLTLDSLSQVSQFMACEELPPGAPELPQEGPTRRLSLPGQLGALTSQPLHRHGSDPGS
PDE-11, sequence (Q9HCR9 whole entry): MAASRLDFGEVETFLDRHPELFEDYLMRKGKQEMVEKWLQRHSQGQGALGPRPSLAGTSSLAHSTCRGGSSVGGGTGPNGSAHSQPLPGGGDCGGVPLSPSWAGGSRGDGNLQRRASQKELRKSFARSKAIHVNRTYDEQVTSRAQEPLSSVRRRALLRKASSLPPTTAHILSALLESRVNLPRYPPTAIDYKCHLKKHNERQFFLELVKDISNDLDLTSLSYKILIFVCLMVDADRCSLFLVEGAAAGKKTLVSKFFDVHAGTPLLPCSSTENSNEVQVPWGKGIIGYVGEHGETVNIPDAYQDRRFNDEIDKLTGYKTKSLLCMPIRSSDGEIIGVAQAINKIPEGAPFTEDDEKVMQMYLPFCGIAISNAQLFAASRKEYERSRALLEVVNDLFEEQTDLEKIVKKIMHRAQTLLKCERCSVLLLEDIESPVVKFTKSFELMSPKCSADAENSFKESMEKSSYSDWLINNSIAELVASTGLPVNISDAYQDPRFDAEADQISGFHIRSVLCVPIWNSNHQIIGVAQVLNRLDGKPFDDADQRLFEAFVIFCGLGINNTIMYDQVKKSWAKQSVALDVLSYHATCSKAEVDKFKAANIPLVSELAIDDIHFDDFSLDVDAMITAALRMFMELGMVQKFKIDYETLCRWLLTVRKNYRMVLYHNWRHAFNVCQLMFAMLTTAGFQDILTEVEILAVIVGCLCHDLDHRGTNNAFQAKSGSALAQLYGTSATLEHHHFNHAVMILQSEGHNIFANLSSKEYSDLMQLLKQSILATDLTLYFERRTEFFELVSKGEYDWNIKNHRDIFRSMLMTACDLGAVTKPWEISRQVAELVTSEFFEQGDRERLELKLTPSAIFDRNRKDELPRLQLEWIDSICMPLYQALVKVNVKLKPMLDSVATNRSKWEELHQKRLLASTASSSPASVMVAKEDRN

## COc1ccc(CNc2nc(N3CC4CC4C3)ncc2C(=O)N[C@H]2CC[C@H](O)CC2)cc1Cl (stereo partly drawn) [Compound 11, 2-(3-azabicyclo[3.1.0]hexan-3-yl)-4-((3-chloro-4-methoxybenzyl)amino)-N-(trans-4-hydroxycyclohexyl)pyrimidine-5-formamide]
PDE-11
  IC50: > 10 µM
PDE-5A enzyme
  IC50: 0.00402 µM
hERG channel
  IC50: > 30 µM
hERG channel; human, CHO-K1 cells stably expressing hERG channel, pH 7.4
  inhibitory effect on hERG channel (in words): none of Compound 3, 11 and 50 of the present invention had a significant inhibitory effect
